In assay [1] the target is MELK (Homo sapiens, UniProt Q14680). Briefly: Kinase assay: MELK activity, phosphorylation of FITC-labeled histone H3 peptide measured by IMAP fluorescence polarization. Format: biochemical. Conditions: 50 micro-M ATP, FITC-labeled histone H3 peptide substrate, IMAP fluorescence polarization; read-out: IC50 (μM) (kinase assay). As to the method:
MELK activity was determined in the presence or absence of compounds using fluorescein isothiocyanate-labeled (FITC-labeled) histone H3 peptide as a substrate. […] Test compounds were dissolved in DMSO at 12.5 mM and then serially diluted as the DMSO concentration in the assays to be 1%. […] The reaction was stopped by the addition of three fold assay volume of progressive binding solution. Following 0.5 hour incubation at room temperature, fluorescence polarization was measured by Wallac EnVision 2103 multilabel reader (PerkinElmer).
On the technique in general: Fluorescence polarisation rises when a labelled molecule tumbles more slowly, as on binding a larger partner.

In assay [2] the test system is HT-1197 cells. The assay can be described thus: Cell-based assay: anti-proliferative activity, Cell Counting Kit-8, 72 hours (HT-1197, negative control without MELK expression). Conditions: Homo sapiens, HT1197, 72 h, HT1197 cells (negative control, no MELK expression), 72 hours. As to the method: (§1) To evaluate the expression status of MELK in several cell lines, western blot analysis was performed using crude cell lysate collected from those cells. Anti-MELK antibody (clone 31, BD Biosciences) was used to visualize the expression.
(§2) Active candidate inhibitors against MELK were evaluated for their target-specific cytotoxicity using T47D, A549, BT-549, and HT-1197 cells was used for negative control. 100 micro-L of cell suspension was seeded onto 96-well microtiter plate (ViewPlate-96FTC, PerkinElmer). The initial cell concentration of T47D, A549, BT-549, and HT-1197 were 3,000 cells/well, 2,000 cells/well and 2,500 cells/well, respectively. Cellular growth was determined using Cell Counting Kit-8 (DOJINDO) at 72 hours after the exposure of the candidate inhibitors. […] Accurate IC50 values were calculated as described previously.
In general terms: Formazan colour is commonly taken as a measure of viable cells.

The test system of assay [3] is A549 cells. The assay can be described thus: Cell-based assay: anti-proliferative activity, Cell Counting Kit-8, 72 hours (A549). The conditions noted are these: Homo sapiens, A549, 72 h, 72 hours. As to the method: 100 micro-L of cell suspension was seeded onto 96-well microtiter plate (ViewPlate-96FTC, PerkinElmer). The initial cell concentration of T47D, A549, BT-549, and HT-1197 were 3,000 cells/well, 2,000 cells/well and 2,500 cells/well, respectively. Cellular growth was determined using Cell Counting Kit-8 (DOJINDO) at 72 hours after the exposure of the candidate inhibitors. […] Accurate IC50 values were calculated as described previously.

In assay [4] the test system is T47D cells. Briefly: Cell-based assay: anti-proliferative activity, Cell Counting Kit-8, 72 hours (T47D). Conditions: Homo sapiens, T47D, 72 h. As to the method: as §1, §2

Chain of MELK (Q14680 whole entry, looked up): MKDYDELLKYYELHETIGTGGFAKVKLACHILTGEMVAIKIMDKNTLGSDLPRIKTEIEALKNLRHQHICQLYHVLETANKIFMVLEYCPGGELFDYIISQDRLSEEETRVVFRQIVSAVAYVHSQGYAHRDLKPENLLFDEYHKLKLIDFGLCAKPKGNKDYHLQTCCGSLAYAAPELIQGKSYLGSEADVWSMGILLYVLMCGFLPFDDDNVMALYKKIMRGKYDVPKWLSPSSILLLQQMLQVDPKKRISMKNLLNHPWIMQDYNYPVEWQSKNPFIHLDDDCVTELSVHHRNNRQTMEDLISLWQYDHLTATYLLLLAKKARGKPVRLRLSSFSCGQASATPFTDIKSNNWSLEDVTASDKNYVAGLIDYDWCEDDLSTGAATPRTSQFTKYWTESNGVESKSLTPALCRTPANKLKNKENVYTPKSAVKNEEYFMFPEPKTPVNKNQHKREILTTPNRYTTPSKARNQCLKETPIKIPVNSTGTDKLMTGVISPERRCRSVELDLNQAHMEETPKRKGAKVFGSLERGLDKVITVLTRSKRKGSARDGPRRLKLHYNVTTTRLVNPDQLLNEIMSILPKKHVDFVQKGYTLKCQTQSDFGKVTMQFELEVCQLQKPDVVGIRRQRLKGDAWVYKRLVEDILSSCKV

Broadly, the IC50 is the concentration at which inhibition is half-maximal. In the case of `CN(C)CC1CCN(c2c(C(=O)C3CCCC3)cnc3ccc(-c4cc(F)c(O)c(Cl)c4)cc23)CC1` [Example 384, (6-(3-chloro-5-fluoro-4-hydroxyphenyl)-4-(4-((dimethylamino)methyl)piperidin-1-yl)quinolin-3-yl)(cyclopentyl)methanone], the IC50 in assay [1] stood at 0.0046 µM; in assay [2], 4 µM; in assay [3], 1.9 µM; in assay [4], 2 µM.
For `CCN(CC)C1CCC(Nc2c(C(=O)C3CCCC3)cnc3ccc(-c4ccc(O)c(Cl)c4)cc23)CC1` (centres unmarked) [Example 385, (6-(3-chloro-4-hydroxyphenyl)-4-(4-(diethylamino)cyclohexylamino)quinolin-3-yl)(cyclopentyl)methanone] the same measures were 0.019 µM, 1.9 µM, 0.94 µM and 1.7 µM.
For `CN(C)Cc1ccc(Nc2c(C(=O)C3CCCC3)cnc3ccc(-c4ccc(O)c(Cl)c4)cc23)cc1` [Example 387, (6-(3-chloro-4-hydroxyphenyl)-4-(4-((dimethylamino)methyl)phenylamino)quinolin-3-yl)(cyclopentyl)methanone] the same measures were 0.089 µM, 1.9 µM, 1 µM and 1.6 µM.
For `CN(C)CC1CCN(c2c(C(=O)C3CCCC3)cnc3ccc(-c4ccc(O)c(Cl)c4)cc23)CC1` [Example 389, (6-(3-chloro-4-hydroxyphenyl)-4-(4-((dimethylamino)methyl)piperidin-1-yl)quinolin-3-yl)(cyclopentyl)methanone] the same measures were 0.031 µM, 6.9 µM, 1.7 µM and 2.9 µM.
As for `CN1CCN(C(=O)CNc2c(C(=O)C3CC3)cnc3ccc(-c4cc(F)c(O)c(Cl)c4)cc23)CC1` [Example 390, 2-(6-(3-chloro-5-fluoro-4-hydroxyphenyl)-3-(cyclopropanecarbonyl)quinolin-4-ylamino)-1-(4-methylpiperazin-1-yl)ethanone], the IC50 was 0.025 µM in assay [1], 10 µM in assay [2], 2.7 µM in assay [3] and 2 µM in assay [4].
For `COc1cc(-c2ccc3ncc(C(C)=O)c(Nc4ccc(CN(C)C)cc4)c3c2)cc(Cl)c1O` [Example 391, 1-(6-(3-chloro-4-hydroxy-5-methoxyphenyl)-4-(4-((dimethylamino)methyl)phenylamino)quinolin-3-yl)ethanone] the same measures were 0.0037 µM, 4.2 µM, 1 µM and 0.12 µM.
For `O=C(c1cnc2ccc(-c3ccc(O)c(Cl)c3)cc2c1N1CCN(CCN2CCCC2)CC1)C1CC1` [Example 403, (6-(3-chloro-4-hydroxyphenyl)-4-(4-(2-(pyrrolidin-1-yl)ethyl)piperazin-1-yl)quinolin-3-yl)(cyclopropyl)methanone] the same measures were 0.011 µM, 10 µM, 1.3 µM and 4.5 µM.
For `COc1cc(-c2ccc3ncc(C(=O)C4CC4)c(Nc4ccc(CN5CCN(C)CC5)cc4)c3c2)ccc1O` [Example 405, cyclopropyl(6-(4-hydroxy-3-methoxyphenyl)-4-(4-((4-methylpiperazin-1-yl)methyl)phenylamino)quinolin-3-yl)methanone] the same measures were 0.017 µM, 3.5 µM, 0.8 µM and 0.76 µM.
For `COc1cc(-c2ccc3ncc(C(=O)C4CC4)c(Nc4ccc(C5CCCN5C)cn4)c3c2)cc(Cl)c1O` (centres unmarked) [Example 444], the IC50 in assay [2] stood at 10 µM; in assay [3] it was 7.6 µM; in assay [4], 6.8 µM.
Consider `Cc1cc(O)c(Cl)cc1-c1ccc2ncc(C(=O)C3CC3)c(N3CCC(CN(C)C)CC3)c2c1` [Example 448], for which the IC50 in assay [2] was 7.9 µM; in assay [3], 1.7 µM; in assay [4], 2 µM.

Source of the values: patent US9120749B2, “Quinoline derivatives and MELK inhibitors containing the same” (ONCOTHERAPY SCIENCE, INC., priority 2010, dated 2015).
